The text below walks through data of patent publication US5858736A, “Preparation of lactams from aliphatic α,ω-dinitriles” (priority 1996, dated 1999).

Converted amounts (≈) assume the structure as drawn.

Data set [1] can be described thus: Solubility of dinitrile in the aqueous cell suspension. It is filed as physicochemical. Conditions: aqueous cell suspension of Acidovorax facilis 72W, two-phase above this concentration; read-out: concentration above which the solubility of the dinitrile was exceeded.
Protocol: Into a 500 mL erlenmeyer flask equipped with magnetic stir bar was placed 50.0 g of frozen Acidovorax facilis 72W (ATCC 55746) cells (previously heat-treated at 50° C. for 1 h before freezing) and 450 mL of potassium phosphate buffer (20 mM, pH 7.0) at 27° C. With stirring, the cells were thawed and suspended, then centrifuged and the supernatant discarded. The cell pellet was resuspended in a total volume of 863 mL of potassium phosphate buffer (20 mM, pH 7.0) in a 1.0 L flask, then 133 g (137.0 mL, 1.25 mole) of 2-methyleneglutaronitrile was added with stirring at 27° C. […] Samples (0.100 mL) were withdrawn, diluted 1:10 with water and centrifuged, then 0.150 mL of the supernatant was placed in a Millipore Ultrafree-MC filter unit (0.22 micron) and mixed with 0.150 mL of an aqueous solution of 0.150M N-methylpropionamide (HPLC external standard solution). The resulting solution was filtered and analyzed by HPLC.
Data set [2] in a line: pKa of acid and protonated amine groups / ionization at reaction pH. The class given is physicochemical. Conditions: calculated, reaction mixture pH of between 9 and 10.
For data set [3] the following is noted: cited from earlier work.
The next data set in a line: physchem. Conditions: 20 mm phosphate buffer, pH 7, aqueous buffer.
[4] abbreviates: Lange's Handbook of Chemistry, 14th edn.

Take `C=C(C#N)CCC#N` [2-methyleneglutaronitrile]: the solubility in data set [1] was not above 400 mM. In the case of `N.NCCCCCC(=O)O` [6-aminocaproic acid ammonium salt], the “fraction of amine groups protonated” value in data set [2] is reported as “approximately half”. Take `NCCCCCC(=O)O` [6-aminocaproic acid]: in data set [3] (setting [4]), the “pKa of the carboxylic acid group” value is recorded as 4.373 and the “pKa of the protonated amine group” value is reported as 10.804. Also, in data set [2], the “fraction existing in solution as the ammonium salt of the carboxylic acid” value is “at least 99.997%”. The compound `N#CCCCCC#N` [adiponitrile] had a solubility in the data set “physchem” of approximately 600 mM (≈ 64.9 mg/mL).

Regarding `CN` [methylamine], the “pKa for the protonated amine (methylamine)” value in data set [3] (in water) is given as 10.62.
